Data published in ChEMBL document CHEMBL4334497, “Synthesis and Pharmacological Characterization of 2-(2,6-Dichlorophenyl)-1-((1S,3R)-5-(3-hydroxy-3-methylbutyl)-3-(hydroxymethyl)-1-methyl-3,4-dihydroisoquinolin-2(1H)-yl)ethan-1-one (LY3154207), a Potent, Subtype Selective, and Orally Available Positive Allosteric Modulator of the Human Dopamine …” (J Med Chem, 2019).
Converted amounts (≈) assume the structure as drawn. Blank lines part the entries; values can stand above or below the compound they belong to. The source made the active and inactive calls. The rule behind the calls is not given here.

Assays:
[1] = Permeability from apical to basolateral side in MDCK2 cells stably expressing human wild-type ABCB1 at 5 uM incubated for 60 mins; assay type: ADME, cell-based, Canis lupus familiaris; conditions: dog, mdck-ii, 1 h
[2] = Tmax in CD1 mouse 10 mg/kg, po measured up to 24 hrs by LC-MS/MS.analysis; assay type: ADME, organism-based; conditions: in vivo
[3] = Clearance in CD1 mouse 1 mg/kg, iv measured up to 24 hrs by LC-MS/MS.analysis; assay type: ADME, organism-based; conditions: in vivo
[4] = AUC in CD1 mouse 1 mg/kg, iv measured up to 24 hrs by LC-MS/MS.analysis; assay type: ADME, organism-based; set-up: dose 1 mg/kg, time < 24 hr, route intravenous; conditions: in vivo
[5] = Volume of distribution at steady state in CD1 mouse 1 mg/kg, iv or 10 mg/kg, po measured up to 24 hrs by LC-MS/MS.analysis; assay type: ADME, organism-based; conditions: in vivo, read-out: Vdss
[6] = Unbound intrinsic clearance in human liver microsomes; assay type: ADME, Microsome
[7] = biological target: T1, D(1A) dopamine receptor (Homo sapiens, UniProt P21728); assay: Positive allosteric modulator activity at human D1 receptor stably expressed in HEK293 cells assessed as potentiation of EC20 dopamine-induced cAMP accumulation incubated for 60 mins by HTRF assay relative to dopamine alone; assay type: functional, cell-based
[8] = AUC in CD1 mouse 10 mg/kg, po measured up to 24 hrs by LC-MS/MS.analysis; assay type: ADME, organism-based; set-up: dose 10 mg/kg, time < 24 hr, route oral; conditions: in vivo
[9] = biological target: T1, D(1A) dopamine receptor; assay: Positive allosteric modulator activity at human D1 receptor stably expressed in HEK293 cells assessed as potentiation of EC20 dopamine-induced cAMP accumulation incubated for 60 mins by HTRF assay; assay type: functional, cell-based
[10] = Oral bioavailability in CD1 mouse 10 mg/kg measured up to 24 hrs by LC-MS/MS.analysis; assay type: ADME, organism-based; conditions: in vivo
[11] = Cmax in CD1 mouse 10 mg/kg, po measured up to 24 hrs by LC-MS/MS.analysis; assay type: ADME, organism-based; set-up: dose 10 mg/kg, route oral; conditions: in vivo
[12] = Unbound intrinsic clearance in mouse liver microsomes; assay type: ADME, Microsome
[13] = Unbound fraction in mouse brain by equilibrium dialysis assay; assay type: ADME, tissue-based
[14] = Solubility of the compound in pH 6.0 buffer by high throughput solubility assay; assay type: physicochemical
[15] = Half life in CD1 mouse 1 mg/kg, iv measured up to 24 hrs by LC-MS/MS.analysis; assay type: ADME, organism-based; conditions: in vivo
[16] = Unbound fraction in mouse liver microsomes by equilibrium dialysis assay; assay type: ADME, Microsome
[17] = Unbound brain-to-plasma concentration ratio in mouse at 3 to 240 mg/kg, po by LC-MS/MS.analysis; assay type: ADME, organism-based; conditions: read-out: K(p,uu,brain)
[18] = Unbound fraction in mouse plasma by equilibrium dialysis assay; assay type: ADME, cell-free
[19] = system: Mus musculus; assay: Induction of locomotor activity in human D1 receptor knock-in habituated transgenic mouse assessed as increase in total ambulations up to 10 mg/kg, sc measured for 60 mins after dosing by photocell beam monitoring based method; assay type: functional, organism-based
[20] = system: Mus musculus; assay: Induction of locomotor activity in human D1 receptor knock-in habituated transgenic mouse assessed as increase in total ambulations at 30 to 60 mg/kg, sc measured for 60 mins after dosing by photocell beam monitoring based method; assay type: functional, organism-based
[21] = system: Mus musculus; assay: Induction of locomotor activity in human D1 receptor knock-in habituated transgenic mouse assessed as increase in total ambulations at 10 mg/kg, sc measured from 60 to 90 mins after daily dosing on day 2 to 4 by photocell beam monitoring based method relative to control; assay type: functional, organism-based
[22] = system: Mus musculus; assay: Induction of locomotor activity in human D1 receptor knock-in habituated transgenic mouse assessed as increase in total ambulations at 10 mg/kg, sc measured from 60 to 90 mins after daily dosing on day 1 by photocell beam monitoring based method relative to control; assay type: functional, organism-based

T1 sequence (P21728 whole entry): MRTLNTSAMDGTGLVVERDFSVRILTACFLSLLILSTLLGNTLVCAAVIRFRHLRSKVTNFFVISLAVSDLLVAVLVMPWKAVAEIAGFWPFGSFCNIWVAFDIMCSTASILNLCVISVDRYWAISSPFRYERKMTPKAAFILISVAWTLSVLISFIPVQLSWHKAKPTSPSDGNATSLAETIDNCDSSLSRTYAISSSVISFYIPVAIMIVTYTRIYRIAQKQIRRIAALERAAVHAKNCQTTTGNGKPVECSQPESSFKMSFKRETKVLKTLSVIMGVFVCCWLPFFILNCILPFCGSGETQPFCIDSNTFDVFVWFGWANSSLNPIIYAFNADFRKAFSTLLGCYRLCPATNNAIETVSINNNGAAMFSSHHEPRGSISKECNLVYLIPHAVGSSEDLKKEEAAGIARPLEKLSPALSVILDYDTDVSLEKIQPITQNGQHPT

permeability [1]: 14%
Tmax [2]: 30 min
clearance [3]: 96.9 mL/min/kg
AUC at 24 h [4]: 0.406 µM·h
Vd [5]: 1.65 L/kg
CL free [6]: 43 mL/min/kg
Emax [7]: 93%
AUC at 24 h [8]: 0.367 µM·h
EC50 [9]: 13.9 nM
bioavailability [10]: 9%
Cmax [11]: 219 nM
CL free [12]: 965 mL/min/kg
fraction unbound [13]: 0.055
solubility [14]: 116 µg/mL (≈ 275 µM)
half-life [15]: 13.8 min
fraction unbound [16]: 0.711
Kp uu [17]: 1.1
fraction unbound [18]: 0.051
SMILES: C[C@H]1c2cccc(C(C)(C)O)c2C[C@H](CO)N1C(=O)Cc1c(Cl)cccc1Cl

CL free [6]: 31 mL/min/kg
EC50 [9]: 76 nM
CL free [12]: 779 mL/min/kg
solubility [14]: 156 µg/mL (≈ 357 µM)
SMILES: C[C@H]1c2cccc(CC(C)(C)O)c2C[C@H](CO)N1C(=O)Cc1c(Cl)cccc1Cl

SMILES: C=CCN1CCc2c(cc(O)c(O)c2Cl)C(c2ccccc2)C1 (stereo unspecified)
Activity [19]: Active
Activity [20]: inactive

SMILES: NC[C@@H]1O[C@H](C23CC4CC(CC(C4)C2)C3)Cc2c1ccc(O)c2O
Activity [21]: inactive
Activity [22]: Active
